From US11207343B2, “Compositions and therapeutic methods” (AyuVis Research LLC, priority 2016, dated 2021)

Tests used:
[1] = test system: LPS induced cytokines (TNF-α, IL-1β and IL-6) in human monocytes; assay: Inhibition of LPS induced inflammatory mediators in human monocytes; format: cell-based; settings: for inhibition of LPS induced TNF-α production: 100 μM; for inhibiting LPS induced inflammation biomarkers (TNF-α, IL-1β and IL-6) in human monocytes: concentration not given
Procedure: To understand the structural requirement and limitations to probe the TLR4 binding pocket for optimal potency and efficacy, we have studied the ability of chitooligomers to inhibit LPS induced inflammation in human monocytes (FIG-8 A-B). Compounds 1-4 inhibited LPS induced cytokines TNF-α, IL-1β and IL-6) in a statistically significant manner at 10 μM concentration. […] The protocol was followed as described [Panda etal, PLoS Pathog 2012, 8, e1002717]. Human monocytes were stimulated with LPS along with the series of compounds (10 μM) for 48 h. TNF-α, IL-1β, I1-6 in culture supernatants were quantified according to the manufacturer's instruction. Similarly, other analogs were assessed for their ability to inhibit LPS induced TNF-α production in human monocytes.

[2] = test system: gram negative (E. Coli, P. Aeruginosa, A, Baumannii, K. Pneumonia), gram positive (MRSA), fungus (C. Albicans); assay: MIC broth microdilution antimicrobial screen; format: cell-based
From the text: The compounds were screened against selected gram negative (E. Coli, P. Aeruginosa, A, Baumannii, K. Pneumonia), gram positive (MRSA) as well as fungus (C. Albicans) mostly found in burn and septic wounds. […] All prepared compounds have been evaluated in a Minimum Inhibitory Concentrations (MIC) assay with both test and control articles in accordance with guidelines of the Clinical Laboratory Standards Institute (CLSI) for broth microdilution susceptibility testing. Briefly, test and control compounds have been dissolved in DMSO, diluted to proper concentrations and added to 96-well microdilution trays. Brain Heart Infusion Broth (BHI) was used for studies with bacterial strains such as S. aureus, E. coli, P. Aeruginosa, K pneumoniae, A. baumannii and Candida albicans. Compounds were diluted serially from 200 μg/ml to 0.0625 μg/ml and plated in 96 well plates, and inoculated with approximately 1×10^5 CFU of each organism.

[3] = test system: MRSA and MSSA strains; assay: Activity against MRSA and MSSA strains compared to colistin; format: cell-based, S. aureus; settings: colistin as positive control
From the text: (§1) Further we studied their biofilm inhibition and eradication activities against biofilm cells as described previously [Ceri et al, Journal of Clinical Microbiology 1999, 37, 1771-1776]. […] Thus, these compounds with activities against S. aureus biofilms will have significant impact on controlling recalcitrant biofilm-mediated endovascular infections [Li et al, J Infect Dis. 2016 Nov. 1;214(9):1421-1429; Archer et al, Virulence 2011, 2, 445-459]. Briefly, we used Calgary Biofilm Device (CBD) technology for the biofilm susceptibilities to compounds. The CBD produces 96 equivalent biofilms for the assay of antibiotic susceptibilities by the standard 96-well technology. Susceptibility to a standard group of compounds and antibiotics was determined for National Committee for Clinical Laboratory Standards (NCCLS) as described previously.

[4] = test system: S. aureus biofilms (MRSA, MSSA); assay: Biofilm inhibition and eradication, Calgary Biofilm Device; format: cell-based
From the text: as §1

[5] = test system: LPS induced TNF-α in mouse bone marrow derived macrophages; assay: Inflammatory mediator (TNF-α) in mouse bone marrow derived macrophages; format: cell-based; settings: for inhibition of LPS induced production of TNF-α: 100 μM, 8 hours, mouse bone marrow derived macrophages; for inhibiting LPS and HMGB1 induced inflammation biomarkers (TNF-α, IL-1β and IL-6): bone derived mouse macrophages
Procedure: Bone marrow derived mouse macrophages were treated with 100 μM of the above test compounds for 8 hours. Pro-inflammatory cytokines such as TNF-α protein level was measured by […]. LPS treatment (10 ng/ml) was used as positive control (FIG. 9).

[6] = test system: E. coli (ATCC-25922); assay: Lethal gram negative E. coli sepsis mouse model; format: in vivo; settings: 250 μg/animal with 2×10^5 CFU E. coli intraperitoneally, BALB/c mice
Procedure: In an in vivo mice model, chitohexaose (Compound 1) protected mouse from lethal gram negative sepsis against E. coli. Previously reported bacterial sepsis model [Roger etal, Proc Natl Acad Sci USA. 2009 Feb 17;106(7):2348-52] was recruited to study the efficacy of Compound 1 (FIG-1). Intraperitoneally 2×10^5 CFU of E. coli (ATCC-25922) was injected into BALB/c mice with and without Compound 1 (250 μg/animal). E. coli mediated sepsis induced mortality whereas simultaneous treatment of mice with Compound 1 protected (40%) from sepsis induced death. The above result explained that bacteria induced sepsis and mortality is inhibited and delayed for a certain period of time which may provide a window for therapy.

[7] = test system: HMGB1 induced VEGF production in ARPE-19 cells; assay: HMGB1 induced VEGF production in ARPE-19 cells (ELISA); format: cell-based, human; settings: 50 μg/mL, 100 ng/mL HMGB1, 24 h, p<0.01
From the text: Central to photoreceptor survival and function, the RPE is the major source of the angiogenic factor VEGF and therefore plays a central role in the modulation and progression of choroidal neovascularization [Spilsbury et al, The American Journal of Pathology 2000, 157, 135-144; Betts et al, ISRN Ophthalmology 2011, 2011, 184295] leading to AMD. As part of our preliminary result to evaluate if compounds 1 and 2 can inhibit the HMGB1 (an endogenous ligand for TLR4) induced VEGF production in ARPE-19 cells. […] 2×10^5 ARPE-19 cells were seeded in 24 well plate for 24 h in full medium containing 10% serum following which they were maintained for additional 24 h with serum free medium. Cells were treated with 0 μg/mL (medium) or 100 ng/mL of HMGB1 along with or without of 50 μg/mL of test compounds for 24 h. Supernatant was collected and assayed using human VEGF ELISA kit from Peprotech according to manufacturer's instructions. RPE cells are located adjacent to choroidal capillaries and other major ocular vasculatures.

[8] = test system: laser-induced choroidal neovascularization; assay: Laser-induced CNV mouse model for wet AMD; format: in vivo, C57BL/6 mice
From the text: The parameters used to reproducibly obtain successful laser spots (as confirmed by a gas bubble formation indicating rupture of Bruch membrane) were: 350 mW, 75 msec, and 50 μm spot size. Four laser spots were applied; 2-3 disc diameters from the optic nerve. […] By the end of the experiment, mouse eyes were examined by fundus fluorescein angiography and/or optical coherence tomography (OCT) to visualize the CNV lesions. Afterwards animals were sacrificed and RPE/choroid/sclera flat mounts were prepared and stained with both FITC-conjugated isolectin B4 and anti-ICAM-2 antibody to quantitatively measure the size of CNV. We have performed two experiments to test the effects of 1, 2, 26 on laser-induced CNV.

## COCC1OC(Oc2ccc([N+](=O)[O-])cc2)C(NC(C)=O)C(O)C1O (stereo not shown) [Compound 16]
[1]; human monocytes
  inhibition of LPS induced TNF-α production: potent inhibitor

## CC(=O)NC1C(OC2C(CO)OC(Oc3ccc4c(C)cc(=O)oc4c3)C(NC(C)=O)C2O)OC(CO)C(O)C1O (stereo not shown) [Compound 12]
[1]; human monocytes
  inhibition of LPS induced TNF-α production: potent inhibitor
[2]
  broad spectrum antimicrobial activity against gram negative, gram positive bacteria and fungus: broad spectrum antimicrobial activity
[3]
  activity against MRSA and MSSA strains compared to colistin: better activity
[4]
  inhibition of biofilm formation by MSSA and MRSA: unexpectedly inhibited biofilm formation

## chitohexaose [Compound 1]
[5]
  inhibition of LPS induced production of TNF-α: Inhibits
[6]
  protection from sepsis induced death: 40%
[3]
  activity against MRSA and MSSA strains compared to colistin: better activity
[7]
  HMGB1 induced VEGF production: effectively reduced

## chitooctaose [Compound 3]
[1]
  inhibiting LPS induced inflammation biomarkers (TNF-α, IL-1β and IL-6) in human monocytes: unexpectedly potent activity
[5]
  inhibiting LPS and HMGB1 induced inflammation biomarkers (TNF-α, IL-1β and IL-6): unexpectedly potent activity

## CC1(C)CC(C(=O)NC2C(OC3C(CO)OC(O)C(N)C3O)OC(CO)C(OC3OC(CO)C(O)C(O)C3N)C2O)CC(C)(C)N1[O] (stereo not shown) [Compound 11]
[1]
  inhibiting LPS induced inflammation biomarkers (TNF-α, IL-1β and IL-6) in human monocytes: unexpectedly superior activity

## chitohepatose [Compound 2]
[1]; 10 μM, human monocytes
  potency relative to chitohexaose (Compound 1), percentage of inhibition of LPS mediated induction of inflammatory cytokines: more potent than chitohexaose
[1]
  inhibiting LPS induced inflammation biomarkers (TNF-α, IL-1β and IL-6) in human monocytes: unexpectedly potent activity
[5]
  inhibition of LPS induced production of TNF-α: Inhibits
  inhibiting LPS and HMGB1 induced inflammation biomarkers (TNF-α, IL-1β and IL-6): unexpectedly potent activity
[7]
  HMGB1 induced VEGF production: effectively reduced
[8]; 200 μg daily i.p. injection
  average size of CNV lesions, relative to control mice treated with vehicle only: about 60%
[8]; as worded in heading of Example 16
  decrease of choroidal neovascularization: ~60%
